Biological target: DYRK1A (Homo sapiens (Human), UniProt Q13627)
Test: DYRK1A Inhibition Assay
Type: biochemical
Conditions: Compounds of Formula (I); DYRK1A 1 nM, ATP 20 μM, Ser/Thr 18 peptide 2 μM, 90 minutes; read-out: DYRK1 IC50
Experimental: • DYRK1A—Invitrogen #PV4105 • Ser/Thr 18 peptide—Invitrogen #PR8227U • Phos-Ser/Thr 18 peptide—Invitrogen #PR8229U • Assay plate—PerkinElmer #6007279 • ATP—Sigma #A7699-5G • Development reagent A—Invitrogen #PR5194B • Development buffer—Invitrogen #PR4876B
• 1. Test compounds were diluted to 1 mM in DMSO • 2. Stock was further diluted 3-fold using Echo platform • 3. 100 nL of DMSO into Columns 1 and 24 and 100 nL of compounds dilutions to Columns 2-23 in a plate.
• 1. Add 5 μL enzyme & substrate mixture to each well in Column 2-23 and A24-H24 wells of the 384-well assay plate; • 2. Add 5 μL 0% Phosphorylation control to A1-H1 and I24-P24 wells of the assay plate; • 3. Add 5 μL 100% Phosphorylation control to I1-P1 wells of the assay plate; • 4. Spin the assay plate (1000 rpm, 1 minute @23° C.); • 5. Incubate enzyme with compounds for 15 minutes at 23° C.; • 6. Add 5 μL ATP solution to each well of the assay plate; • 7. Spin the plate (1000 rpm, 1 minute @23° C.); • 8. Incubate the assay plate for 90 minutes at 23° C.; • 9. Add 10 μL Development reagent A to each well of the assay plate; • 10. Centrifuge the plate at 1000 rpm about 15 seconds and seal a film over assay plate. Incubate the assay plate for 30 minutes at 23° C. • 11. Read assay plates on Envision (see Tables A and B).
Final Compound Concentrations […]

- IC50: 100 to 1000 nM
SMILES: C(#CC1CCNCC1)c1ccc2c(-c3ccncc3)c[nH]c2n1 [Compound 97]
